Test system: RBL-1 cell
Details: glass chip treated with base then H2O (FIG. 31) and conventional patch glass capillary (FIG. 30), addition of barium chloride
Procedure: After baking, the glass chips were stored in de-ionized H2O for many hours (ranging from less than 1 hour to over 2 days). […] The whole cell recording on a RBL-1 cell on this chip for a ramping voltage protocol, in which the voltage applied across the cell membrane linearly varied with time from −120 mV to 60 mV at a rate of 120 mV/second, is shown in FIG. 29. […] With or without baking the chips, the glass chips were first treated with HNO3 (6 M) for 4 or 5 hours, then treated with NaOH (5M) for 30-45 minutes, and were then transferred into de-ionized H2O (pH=6-7) for storage/treatment. […] A ramping voltage protocol was used for the recording in FIG. 32, in which the voltage applied across the cell membrane linearly varied with time from −120 mV to 60 mV at a rate of 120 mV/second. […] A ramping voltage protocol was used for the recording in FIG. 33, in which the voltage applied across the cell membrane linearly varied with time from −120 mV to 60 mV at a rate of 120 mV/second. • (4) Laser polishing followed by Acid treatment and then by base treatment.

[Ba+2].[Cl-].[Cl-] [barium chloride]
whole-cell current: inhibition of the whole-cell current
